This passage reports TGI and GI50 results from PubChem BioAssay (NCI).

Some test systems named below: A549 NSCLC; CCRF-CEM leukemia; HCT-15 colon; MDA-MB-231 breast; RPMI-8226 leukemia; SK-OV-3 ovarian; SN12C renal; TK-10 renal; U251 CNS; UO-31 renal.
Holding throughout (experiment): NCI-60 cell line screen, 48 h

Values joined by “and” are separate entries in the source; they are usually repeats but may differ in a detail not shown here. Equal entries are not always repeated.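 Test compounds were applied to cells in 96-well plates for 48 hours at 5 doses. GI50: concentration for 50% inhibition of growth. Definition used: TGI = concentration required for complete inhibition of growth.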

Consider `COc1cc(O)c2c(O)c3c(c4c2c1[C@]1(C4)C(C)=CCCC1(C)C)[C@H](O)[C@@]1(O)CC(=O)C(C(N)=O)=C(O)[C@@]1(O)C3=O`, for which the TGI in the test with A549 NSCLC was determined as 1.38 µM; with CCRF-CEM leukemia, 0.185 µM; with HCT-15 colon it was 1.45 µM; in the test with MDA-MB-231 breast, 1.17 µM; with RPMI-8226 leukemia it was 1.18 µM; in the test with SK-OV-3 ovarian, 1.43 µM. Besides, the TGI in the test with SN12C renal was determined as 1.25 µM; with TK-10 renal, 1.18 µM; in the test with U251 CNS, 1.17 µM; with UO-31 renal, 1.27 µM.

With `C[C@@H]1CN(C(=O)c2ccc(NC(=O)c3cc(O[C@H](C)c4c(Cl)ccc(F)c4Cl)c(N)nn3)cc2)C[C@H](C)N1`, the GI50 is 3.03 µM in the test with A549 NSCLC; 1.78 µM in the test with CCRF-CEM leukemia; 3.92 µM in the test on HCT-15 colon; 2.1 µM in the test on MDA-MB-231 breast; 2.37 µM with RPMI-8226 leukemia; 11.1 µM in the test on SK-OV-3 ovarian. Moreover, the GI50 in the test on SN12C renal is 2.41 µM; in the test with TK-10 renal, 11.5 µM; in the test on U251 CNS it was 3.4 µM; with UO-31 renal, 3.26 µM. Further, the TGI is 15.8 µM with A549 NSCLC; 12 µM with CCRF-CEM leukemia; 15.1 µM in the test with HCT-15 colon; 8 µM with MDA-MB-231 breast; 8.17 µM in the test with RPMI-8226 leukemia; 23.1 µM with SK-OV-3 ovarian. In addition, the TGI turned out to be 13.6 µM in the test on SN12C renal, 23.6 µM in the test with TK-10 renal, 12.9 µM with U251 CNS and 14 µM in the test with UO-31 renal.

`Cc1nn(-c2nc3ccccc3s2)c(C)c1Oc1ccccc1O`: the GI50 in the test with A549 NSCLC is 6.14 µM; in the test with CCRF-CEM leukemia it was 5.14 µM; with HCT-15 colon it was 0.762 µM; with MDA-MB-231 breast, 10.8 µM; with RPMI-8226 leukemia, 8.13 µM; in the test on SK-OV-3 ovarian it was 7.57 µM. Besides, the GI50 is 6.92 µM with SN12C renal, 13.9 µM in the test on TK-10 renal, 1.39 µM in the test on U251 CNS and 4.44 µM in the test with UO-31 renal. Besides, the TGI in the test with A549 NSCLC was determined as 22.5 µM; in the test with CCRF-CEM leukemia, 47.8 µM; in the test with HCT-15 colon, 17.7 µM; in the test on MDA-MB-231 breast, 25.9 µM; in the test on RPMI-8226 leukemia, 34.8 µM; with SK-OV-3 ovarian, 24.8 µM. In addition, the TGI in the test on SN12C renal was 22 µM; in the test with TK-10 renal, 31.9 µM; with U251 CNS, 16.3 µM; in the test on UO-31 renal, 18.6 µM.

For the compound `Nc1nc(N)c(N=O)c(Nc2ccc(O)cc2)n1`, the TGI with A549 NSCLC is greater than 100 µM; in the test on CCRF-CEM leukemia it was greater than 100 µM; in the test with HCT-15 colon it was greater than 100 µM; with MDA-MB-231 breast, greater than 100 µM; in the test with RPMI-8226 leukemia it was greater than 68.2 µM; with SK-OV-3 ovarian, 45.1 µM. Further, the TGI is greater than 100 µM with SN12C renal, greater than 100 µM in the test on TK-10 renal, greater than 100 µM with U251 CNS and greater than 86.7 µM in the test with UO-31 renal.

As to `COC(=O)NC1C(C)OC(OC2C/C=C(/C)C3C=CC4C(OC5CC(OC6CC(O)C(OC7CC(O)C(OC)C(C)O7)C(C)O6)C(O)C(C)O5)C(C)CC(C)C4C3(C)/C(O)=C3\C(=O)OC4(CC(C)C(CO)=CC4/C=C\2C)C3=O)CC1(C)[N+](=O)[O-]` (configuration not stated), the GI50 is 25.7 µM in the test on A549 NSCLC; 9.71 µM with CCRF-CEM leukemia; 15.7 µM in the test on RPMI-8226 leukemia; 10.3 µM in the test on SK-OV-3 ovarian; 9.65 µM in the test with SN12C renal; 25.8 µM with TK-10 renal. For the same compound, the GI50 in the test with UO-31 renal was 14.4 µM. Moreover, the TGI with A549 NSCLC is 50 µM and 58.5 µM; with CCRF-CEM leukemia, 36.8 µM and 23.6 µM; in the test on HCT-15 colon, 50 µM and 40.8 µM; in the test with MDA-MB-231 breast it was 36 µM; in the test on RPMI-8226 leukemia, 50 µM and 26.9 µM; in the test on SK-OV-3 ovarian it was 50 µM and 20.9 µM. Moreover, the TGI was 29.1 µM and 40 µM with SN12C renal; 32.5 µM and 81.2 µM with TK-10 renal; 32.2 µM and 27.6 µM in the test with U251 CNS; 50 µM and 34.3 µM in the test with UO-31 renal.

Turning to `COC(=O)Nc1nc2ccc(Oc3ccc(NC(=O)Nc4cccc(C(=O)O)c4)cc3)cc2[nH]1`, the GI50 is 10.5 µM in the test on A549 NSCLC; 7.02 µM in the test on CCRF-CEM leukemia; 6.49 µM in the test on HCT-15 colon; 11.5 µM with MDA-MB-231 breast; 8.03 µM with RPMI-8226 leukemia; 5.53 µM with SK-OV-3 ovarian. Moreover, the GI50 in the test with SN12C renal was 11.9 µM; with TK-10 renal, greater than 23.1 µM; with U251 CNS, 7.35 µM; in the test with UO-31 renal, 15.7 µM. Further, the TGI in the test with A549 NSCLC is greater than 25 µM; in the test on CCRF-CEM leukemia, greater than 25 µM; in the test with HCT-15 colon, greater than 25 µM; in the test with MDA-MB-231 breast, greater than 25 µM; with RPMI-8226 leukemia, greater than 25 µM; with SK-OV-3 ovarian, 16.3 µM. For the same compound, the TGI in the test with SN12C renal, in the test on TK-10 renal, with U251 CNS and in the test with UO-31 renal was greater than 25 µM throughout.

`C/C=C(\C)C(=O)N[C@H]1CC[C@]2(C)C3CC[C@@]4(C)C(CC[C@@H]4C(C)N(C)C)C3CCC2[C@H]1OC(C)=O` (some centres not stated): the GI50 was 2.07 µM with A549 NSCLC; 1.97 µM in the test on CCRF-CEM leukemia; 0.762 µM with HCT-15 colon; 1.91 µM in the test with MDA-MB-231 breast; 1.62 µM in the test with RPMI-8226 leukemia; 2.06 µM with SK-OV-3 ovarian. In addition, the GI50 with SN12C renal was 1.7 µM; in the test on TK-10 renal, 2.16 µM; in the test with U251 CNS, 1.55 µM; with UO-31 renal, 1.24 µM. Further, the TGI in the test with A549 NSCLC amounted to 4.69 µM; in the test with CCRF-CEM leukemia it was 6.19 µM; with HCT-15 colon, 2.4 µM; in the test with MDA-MB-231 breast it was 4.02 µM; in the test with RPMI-8226 leukemia, 4.68 µM; in the test on SK-OV-3 ovarian, 4.27 µM. The TGI worked out at 4.26 µM in the test on SN12C renal, 4.59 µM with TK-10 renal, 3.56 µM with U251 CNS and 2.54 µM with UO-31 renal.

Turning to `Oc1ccc2cc(Br)ccc2c1-c1c(O)ccc2cc(Br)ccc12`, the GI50 in the test on A549 NSCLC is 3.78 µM; in the test on CCRF-CEM leukemia it was 3.31 µM; in the test with HCT-15 colon, 3.2 µM; in the test on MDA-MB-231 breast it was 1.76 µM; with RPMI-8226 leukemia it was 2.81 µM; in the test on SK-OV-3 ovarian it was 4.72 µM. Besides, the GI50 was 2.04 µM with SN12C renal, 2.52 µM in the test on TK-10 renal, 3.93 µM in the test with U251 CNS and 1.96 µM in the test with UO-31 renal. For the same compound, the TGI was 13.1 µM with A549 NSCLC; 12 µM in the test with CCRF-CEM leukemia; 12.1 µM in the test on HCT-15 colon; 4.55 µM in the test on MDA-MB-231 breast; 9.1 µM in the test with RPMI-8226 leukemia; 17.3 µM in the test on SK-OV-3 ovarian. Further, the TGI in the test on SN12C renal was 4.81 µM; in the test on TK-10 renal, 5.86 µM; in the test on U251 CNS, 12.9 µM; in the test with UO-31 renal, 9.92 µM.
